Test results from patent US9296734B2 (AMGEN INC., priority 2013, dated 2016).
pIC50: −log10 of the molar value. Where two headings read alike, the source gives them in different places.

Assays:
[1] = target: Beta Secretase enzyme (BACE) (Homo sapiens (Human), UniProt P56817); assay: In vitro enzymatic BACE FRET assay; assay type: biochemical; conditions: read-out: BACE 1 FRET assay IC50
Description: In Vitro Enzymatic BACE FRET (Fluorescence Resonance Energy Transfer) Assay (Enzyme Assay Data in the Example Table I)
The assay buffer used in this screen is 0.05 M acetate, pH 4.2, 10% DMSO final, 100 uM genapol (which is a nonionic detergent, below its Critical Micelle Concentration). […] This assay is effectively started by the addition of FRET substrate (50 nM) and the combination is incubated for one hour. The FRET assay is terminated with by addition of Tris buffer, which raises the pH to neutrality, and the fluorescence is determined. The FRET substrate is a peptide with commercially available fluorophore and quencher, on opposite sides of the BACE cleavage site.

[2] = test system: Aβ40 in conditioned medium of cells stably expressing Amyloid Precursor Protein (APP); assay: In vitro BACE cell-based assay (Aβ40 sandwich ELISA); conditions: Homo sapiens
In short: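 Secreted Aβ40 was quantified by sandwich ELISA (pAb40 capture, biotinylated 6E10 detection, Europium time-resolved fluorescence). IC50 derived from percent inhibition versus concentration.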

Cathepsin D (Cat D) = Cathepsin D (Cat D) (Homo sapiens (Human), UniProt P07339); assay: In vitro enzymatic Cathepsin D (Cat D) FRET assay; assay type: biochemical; conditions: read-out: CatD IC50
In short: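 CHO-expressed recombinant Cat D cleaves a fluorophore/quencher FRET peptide (20 nM) in 0.05 M citrate pH 3.5, 5 mM CHAPS, 10% DMSO final, over 1 h. Tris addition neutralizes pH to stop the reaction; fluorescence read at excitation 500 nm, emission 580 nm.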

[3] = HEK293, average IC50, HEK cells, read-out: HEK cell assay IC50
[4] = average IC50, BACE enzyme assay
[5] = HEK293, average IC50, HEK cell assay, read-out: HEK cell assay IC50
[6] = average IC50, cathepsin D enzyme assay
[7] = HEK293, read-out: HEK cell assay IC50

Chain of Beta Secretase enzyme (BACE) (P56817 46-501): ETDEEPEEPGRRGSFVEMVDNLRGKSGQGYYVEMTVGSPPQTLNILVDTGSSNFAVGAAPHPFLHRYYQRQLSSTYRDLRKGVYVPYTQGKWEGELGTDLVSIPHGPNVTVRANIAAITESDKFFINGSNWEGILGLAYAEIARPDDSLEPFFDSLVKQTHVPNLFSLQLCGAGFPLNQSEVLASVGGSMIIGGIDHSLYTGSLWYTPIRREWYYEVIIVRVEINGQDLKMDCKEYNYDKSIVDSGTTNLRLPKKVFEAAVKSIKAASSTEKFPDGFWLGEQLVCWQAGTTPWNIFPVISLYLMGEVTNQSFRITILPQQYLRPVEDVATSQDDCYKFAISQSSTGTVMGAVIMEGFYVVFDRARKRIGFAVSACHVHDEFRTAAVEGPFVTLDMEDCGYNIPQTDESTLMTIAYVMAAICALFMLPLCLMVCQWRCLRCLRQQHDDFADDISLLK
Chain of Cathepsin D (Cat D) (P07339 65-412, species assumed): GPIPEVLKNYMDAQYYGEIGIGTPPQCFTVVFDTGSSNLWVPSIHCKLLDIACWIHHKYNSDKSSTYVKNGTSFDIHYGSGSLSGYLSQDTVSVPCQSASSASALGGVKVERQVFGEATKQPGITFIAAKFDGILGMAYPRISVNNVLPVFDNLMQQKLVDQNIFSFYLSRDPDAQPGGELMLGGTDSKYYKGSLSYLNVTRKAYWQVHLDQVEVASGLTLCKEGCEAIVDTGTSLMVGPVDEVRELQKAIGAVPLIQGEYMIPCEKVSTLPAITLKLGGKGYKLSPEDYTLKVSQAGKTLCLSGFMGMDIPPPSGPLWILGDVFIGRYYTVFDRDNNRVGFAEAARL

Compound | pIC50 ([1]; average IC50) | pIC50 [2, 3] | pIC50 (Cathepsin D (Cat D); average IC50) | pIC50 [1, 4] | pIC50 [2, 5] | pIC50 (Cathepsin D (Cat D); [6]) | pIC50 [2, 7]
C[C@@]1(c2cc(Nc3ncnc4cc(C#N)cnc34)cnc2F)C[C@@H](C(F)(F)F)OC(N)=N1 [Example 75, 4-((5-((4S,6S)-2-amino-4-methyl-6-(trifluoromethyl)-5,6-dihydro-4H-1,3-oxazin-4-yl)-6-fluoropyridin-3-yl)amino)pyrido[3,2-d]pyrimidine-7-carbonitrile] | 6.43 | 7.04 | < 3.40 |  |  |  | 
C[C@@]1(c2cc(Nc3nccc4cc(Cl)cnc34)cnc2F)C[C@@H](C(F)(F)F)OC(N)=N1 [Example 76, (4S,6S)-4-(5-((3-chloro-1,7-naphthyridin-8-yl)amino)-2-fluoropyridin-3-yl)-4-methyl-6-(trifluoromethyl)-5,6-dihydro-4H-1,3-oxazin-2-amine] | 7.48 | 7.38 | < 3.40 |  |  |  | 
C[C@@]1(c2cc(Nc3nccc4cc(C#N)cnc34)cnc2F)C[C@@H](C(F)(F)F)OC(N)=N1 [Example 77, 8-((5-((4S,6S)-2-amino-4-methyl-6-(trifluoromethyl)-5,6-dihydro-4H-1,3-oxazin-4-yl)-6-fluoropyridin-3-yl)amino)-1,7-naphthyridine-3-carbonitrile] | 7.02 | 7.61 | < 3.40 |  |  |  | 
C[C@@]1(c2nc(NC(=O)c3ccc(Cl)cn3)ccc2F)C[C@@H](C(F)(F)F)OC(N)=N1 [Example 83, N-(6-((4S,6S)-2-amino-4-methyl-6-(trifluoromethyl)-5,6-dihydro-4H-1,3-oxazin-4-yl)-5-fluoropyridin-2-yl)-5-chloropicolinamide] | 6.99 | 7.41 | < 3.40 |  |  |  | 
Cc1cc(OC(F)F)cnc1C(=O)Nc1ccc(F)c([C@]2(C)C[C@@H](C(F)(F)F)OC(N)=N2)n1 [Example 85, N-(6-((4S,6S)-2-amino-4-methyl-6-(trifluoromethyl)-5,6-dihydro-4H-1,3-oxazin-4-yl)-5-fluoropyridin-2-yl)-5-(difluoromethoxy)-3-methylpicolinamide] | 6.99 | 7.53 | 3.31 |  |  |  | 
C#CCOc1cnc(C(=O)Nc2ccc(F)c([C@]3(C)C[C@@H](C(F)(F)F)OC(N)=N3)n2)cn1 [Example 87, N-(6-((4S,6S)-2-amino-4-methyl-6-(trifluoromethyl)-5,6-dihydro-4H-1,3-oxazin-4-yl)-5-fluoropyridin-2-yl)-5-(prop-2-yn-1-yloxy)pyrazine-2-carboxamide] | 7.60 | 8.08 | 3.22 |  |  |  | 
C[C@@]1(c2nc(NC(=O)c3nn(C(F)F)cc3Cl)ccc2F)C[C@@H](C(F)(F)F)OC(N)=N1 [Example 88, N-(6-((4S,6S)-2-amino-4-methyl-6-(trifluoromethyl)-5,6-dihydro-4H-1,3-oxazin-4-yl)-5-fluoropyridin-2-yl)-4-chloro-1-(difluoromethyl)-1H-pyrazole-3-carboxamide] |  |  |  | 7.49 | 8.00 | 3.15 | 
Cc1cc(Cl)cnc1C(=S)Nc1ccc(F)c([C@]2(CF)C[C@@H](C(F)(F)F)OC(N)=N2)c1 [Example 90, N-(3-((4S,6S)-2-amino-4-(fluoromethyl)-6-(trifluoromethyl)-5,6-dihydro-4H-1,3-oxazin-4-yl)-4-fluorophenyl)-5-chloro-3-methylpyridine-2-carbothioamide] | 5.75 | 6.04 | < 3.40 |  |  |  | 
NC1=N[C@](CF)(c2cc(Oc3cnccn3)ccc2F)C[C@@H](C(F)(F)F)O1 [Example 92, (4S,6S)-4-(2-fluoro-5-(pyrazin-2-yloxy)phenyl)-4-(fluoromethyl)-6-(trifluoromethyl)-5,6-dihydro-4H-1,3-oxazin-2-amine] | 5.79 | 5.78 | < 3.40 |  |  |  | 
NC1=N[C@](CF)(c2cc(Oc3ncc(Cl)cc3F)ccc2F)C[C@@H](C(F)(F)F)O1 [Example 95, (4S,6S)-4-(5-((5-chloro-3-fluoropyridin-2-yl)oxy)-2-fluorophenyl)-4-(fluoromethyl)-6-(trifluoromethyl)-5,6-dihydro-4H-1,3-oxazin-2-amine] | 5.54 | 5.59 | < 3.40 |  |  |  | 
NC1=N[C@](CF)(c2cc(Oc3cc(Br)cc(Cl)n3)ccc2F)C[C@@H](C(F)(F)F)O1 [Example 98] | 5.71 | 5.54 | < 3.40 |  |  |  | 
NC1=N[C@](CF)(c2cc(Oc3cccc(Cl)n3)ccc2F)C[C@@H](C(F)(F)F)O1 [Example 100, (4S,6S)-4-(5-((6-chloropyridin-2-yl)oxy)-2-fluorophenyl)-4-(fluoromethyl)-6-(trifluoromethyl)-5,6-dihydro-4H-1,3-oxazin-2-amine] |  |  |  | 5.80 | 5.49 | 2.71 | 
NC1=N[C@](CF)(c2cc(-c3nc4ccc(Cl)cc4o3)ccc2F)C[C@@H](C(F)(F)F)O1 [Example 105, (4S,6S)-4-(5-(6-chlorobenzo[d]oxazol-2-yl)-2-fluorophenyl)-4-(fluoromethyl)-6-(trifluoromethyl)-5,6-dihydro-4H-1,3-oxazin-2-amine] |  |  |  | 6.27 |  | < 4.35 | 5.55
N#Cc1cccnc1Oc1ccc(F)c([C@]2(CF)C[C@@H](C(F)(F)F)OC(N)=N2)c1 [Example 107, 2-(3-((4S,6S)-2-amino-4-(fluoromethyl)-6-(trifluoromethyl)-5,6-dihydro-4H-1,3-oxazin-4-yl)-4-fluorophenoxy)nicotinonitrile] | 5.23 |  | 2.85 |  |  |  | 5.44
NC1=N[C@](CF)(c2cc(Oc3ncccn3)ccc2F)C[C@@H](C(F)(F)F)O1 [Example 108, (4S,6S)-4-(2-fluoro-5-(pyrimidin-2-yloxy)phenyl)-4-(fluoromethyl)-6-(trifluoromethyl)-5,6-dihydro-4H-1,3-oxazin-2-amine] | 5.00 | < 4.81 | < 3.40 |  |  |  | 
NC1=N[C@](CF)(c2cc(Oc3nccc(C(F)(F)F)c3F)ccc2F)C[C@@H](C(F)(F)F)O1 [Example 109, (4S,6S)-4-(2-fluoro-5-((3-fluoro-4-(trifluoromethyl)pyridin-2-yl)oxy)phenyl)-4-(fluoromethyl)-6-(trifluoromethyl)-5,6-dihydro-4H-1,3-oxazin-2-amine] | 5.02 |  | < 3.40 |  |  |  | 5.09
NC1=N[C@](CF)(c2cc(Oc3cccc(C(F)(F)F)n3)ccc2F)C[C@@H](C(F)(F)F)O1 [Example 110, (4S,6S)-4-(2-fluoro-5-((6-(trifluoromethyl)pyridin-2-yl)oxy)phenyl)-4-(fluoromethyl)-6-(trifluoromethyl)-5,6-dihydro-4H-1,3-oxazin-2-amine] | 5.47 | 5.34 | 2.74 |  |  |  | 
C[Si](C)(C)C#Cc1ccc(-c2ccc(F)c([C@]3(CF)C[C@@H](C(F)(F)F)OC(N)=N3)c2)cn1 [Example 111, (4S,6S)-4-(2-fluoro-5-(6-((trimethylsilyl)ethynyl)pyridin-3-yl)phenyl)-4-(fluoromethyl)-6-(trifluoromethyl)-5,6-dihydro-4H-1,3-oxazin-2-amine] |  |  |  | 4.43 |  | < 3.40 | < 4.81
C#Cc1ccc(-c2ccc(F)c([C@]3(CF)C[C@@H](C(F)(F)F)OC(N)=N3)c2)cn1 [Example 112, (4S,6S)-4-(5-(6-ethynylpyridin-3-yl)-2-fluorophenyl)-4-(fluoromethyl)-6-(trifluoromethyl)-5,6-dihydro-4H-1,3-oxazin-2-amine] |  |  |  | < 4.40 | < 4.81 | < 3.40 | 
CC#Cc1ccc(-c2ccc(F)c([C@]3(CF)C[C@@H](C(F)(F)F)OC(N)=N3)c2)cn1 [Example 113, (4S,6S)-4-(2-fluoro-5-(6-(prop-1-yn-1-yl)pyridin-3-yl)phenyl)-4-(fluoromethyl)-6-(trifluoromethyl)-5,6-dihydro-4H-1,3-oxazin-2-amine] |  |  |  | 4.56 | < 4.81 | 3.77 | 
NC1=N[C@](CF)(c2cc(-c3ncc4cc(F)ccc4n3)ccc2F)C[C@@H](C(F)(F)F)O1 [Example 114, (4S,6S)-4-(2-fluoro-5-(6-fluoroquinazolin-2-yl)phenyl)-4-(fluoromethyl)-6-(trifluoromethyl)-5,6-dihydro-4H-1,3-oxazin-2-amine] |  |  |  | < 4.40 | < 4.81 | 3.12 | 
NC1=N[C@](CF)(c2cc(Nc3cc(-c4ccccc4)ccn3)ccc2F)C[C@@H](C(F)(F)F)O1 [Example 115, (4S,6S)-4-(2-fluoro-5-((4-phenylpyridin-2-yl)amino)phenyl)-4-(fluoromethyl)-6-(trifluoromethyl)-5,6-dihydro-4H-1,3-oxazin-2-amine] |  |  |  | 5.10 | 5.50 | 3.50 | 
NC1=N[C@](CF)(c2cc(-c3ccc4cc(F)ccc4n3)ccc2F)C[C@@H](C(F)(F)F)O1 [Example 116, (4S,6S)-4-(2-fluoro-5-(6-fluoroquinolin-2-yl)phenyl)-4-(fluoromethyl)-6-(trifluoromethyl)-5,6-dihydro-4H-1,3-oxazin-2-amine] |  |  |  | < 4.40 | < 4.81 | < 3.88 | 
